Measurements published in patent publication US8063065B2, “Azaindazole compounds as CCR1 receptor antagonists” (Boehringer Ingelheim International GmbH, priority 2008, dated 2011).

What was measured:
CCR1 [1] = target: T1, CCR1 (Homo sapiens, UniProt P32246); test: Method A: calcium flux in CCR1 transfected cells (Fluo-4 NW, FLIPR TETRA), block of the CCR1/MIP-1α interaction; format: cell-based; conditions: Method A: Fluo-4 NW, MIP-1 alpha at EC80
T1 sequence (P32246 1-355): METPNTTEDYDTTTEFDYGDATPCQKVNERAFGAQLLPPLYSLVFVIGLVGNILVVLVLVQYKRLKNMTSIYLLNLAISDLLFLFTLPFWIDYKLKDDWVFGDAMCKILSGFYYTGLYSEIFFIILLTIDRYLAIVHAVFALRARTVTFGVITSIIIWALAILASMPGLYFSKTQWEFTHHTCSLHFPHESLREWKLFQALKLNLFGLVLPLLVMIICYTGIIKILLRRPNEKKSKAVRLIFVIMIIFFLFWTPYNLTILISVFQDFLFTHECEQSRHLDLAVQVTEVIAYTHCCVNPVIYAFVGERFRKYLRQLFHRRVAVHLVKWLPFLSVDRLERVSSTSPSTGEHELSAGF
In short: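 Non-adherent cells stably expressing recombinant CCR1 and G-alpha-16, Fluo-4 NW-loaded 1 h at room temperature, preincubated 1 h with compound (top 3,000 nM, 4-fold, 10 doses; 1% DMSO) in HBSS/20 mM HEPES pH 7.4. MIP-1 alpha added at EC80; intracellular calcium flux recorded on FLIPR TETRA.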

CCR1 [2] = target: T1, CCR1; test: Method B: calcium flux in CCR1 transfected cells (Calcium 4 dye, […] FDSS6000), block of the CCR1/MIP-1α interaction; format: cell-based; conditions: Method B: Calcium 4 dye, MIP-1alpha at EC80
In short: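 Calcium flux on an FDSS6000 was triggered by MIP-1α at its EC80 in stably CCR1/G-alpha-16-expressing non-adherent cells. Before this, Calcium 4-loaded cells were preincubated with compound in HBSS, 20 mM HEPES pH 7.4, 1% DMSO: 30 min at 37 C plus 30 min at room temperature. Ten 4-fold doses began at 3,000 nM, with ±MIP-1α DMSO wells as controls.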

Row | Compound | IC50 (CCR1 [1]) [nM] | IC50 (CCR1 [2]) [nM]
1 | C[C@@H](O)CNS(=O)(=O)c1ccc(CNC(=O)c2cncc3c2cnn3-c2ccc(F)cc2)cc1 [1-(4-Fluorophenyl)-1H-pyrazolo[3,4-c]pyridine-4-carboxylic acid 4-((R)-2-hydroxy-propylsulfamoyl)-benzylamide] | 2 | 1
2 | O=C(NCc1ccc(S(=O)(=O)N2CCOCC2)nc1)c1cncc2c1cnn2-c1ccc(Cl)cc1 [1-(4-Chlorophenyl)-1H-pyrazolo[3,4-c]pyridine-4-carboxylic acid [6-(morpholine-4-sulfonyl)-pyridin-3-ylmethyl]-amide] | 3 | 
3 | CN1CCN(S(=O)(=O)Cc2ccc(CNC(=O)c3cncc4c3cnn4-c3ccc(F)cc3)cc2)CC1 [1-(4-Fluorophenyl)-1H-pyrazolo[3,4-c]pyridine-4-carboxylic acid 4-(4-methyl-piperazine-1-sulfonylmethyl)-benzylamide] | 39 | 
4 | O=C(NCc1ccc(CS(=O)(=O)NC2CCCCC2)cc1)c1cncc2c1cnn2-c1ccc(F)cc1 [1-(4-Fluorophenyl)-1H-pyrazolo[3,4-c]pyridine-4-carboxylic acid 4-cyclohexylsulfamoylmethyl-benzylamide] | 11 | 
5 | CN(CCO)S(=O)(=O)c1ccc(CNC(=O)c2cncc3c2cnn3-c2ccc(F)cc2)cc1 [1-(4-Fluorophenyl)-1H-pyrazolo[3,4-c]pyridine-4-carboxylic acid 4-[(2-hydroxy-ethyl)-methyl-sulfamoyl]-benzylamide] | 1 | 
6 | O=C(NCc1ccc(S(=O)(=O)N2CCC(O)C2)cc1)c1cncc2c1cnn2-c1ccc(F)cc1 (centres unmarked) [1-(4-Fluorophenyl)-1H-pyrazolo[3,4-c]pyridine-4-carboxylic acid 4-(3-hydroxy-pyrrolidine-1-sulfonyl)-benzylamide] | 0.9 | 
7 | O=C(NCc1cc(C(F)(F)F)cc(C(F)(F)F)c1)c1cncc2c1cnn2-c1ccc(F)cc1 [1-(4-Fluorophenyl)-1H-pyrazolo[3,4-c]pyridine-4-carboxylic acid 3,5-bis-trifluoromethyl-benzylamide] | 3 | 
8 | C[C@H](O)CNS(=O)(=O)c1ccc(CNC(=O)c2cncc3c2cnn3-c2ccc(F)cc2)cc1 [1-(4-Fluorophenyl)-1H-pyrazolo[3,4-c]pyridine-4-carboxylic acid 4-((S)-2-hydroxy-propylsulfamoyl)-benzylamide] | 1 | 0.8
9 | COCCN(c1ccc(CNC(=O)c2cncc3c2cnn3-c2ccc(Cl)cc2)cn1)S(C)(=O)=O [1-(4-Chlorophenyl)-1H-pyrazolo[3,4-c]pyridine-4-carboxylic acid {6-[methanesulfonyl-(2-methoxy-ethyl)-amino]-pyridin-3-ylmethyl}-amide] | 5 | 
10 | CNS(=O)(=O)c1ccc(CNC(=O)c2cncc3c2cnn3-c2ccc(F)cc2)c(Cl)c1 [1-(4-Fluorophenyl)-1H-pyrazolo[3,4-c]pyridine-4-carboxylic acid 2-chloro-4-methylsulfamoyl-benzylamide] | 0.2 | 
11 | NC(=O)CNS(=O)(=O)c1ccc(CNC(=O)c2cncc3c2cnn3-c2ccc(F)cc2)cc1 [1-(4-Fluorophenyl)-1H-pyrazolo[3,4-c]pyridine-4-carboxylic acid 4-(carbamoylmethyl-sulfamoyl)-benzylamide] | 22 | 
12 | NC1CCN(S(=O)(=O)c2ccc(CNC(=O)c3cncc4c3cnn4-c3ccc(F)cc3)cc2)CC1 [1-(4-Fluorophenyl)-1H-pyrazolo[3,4-c]pyridine-4-carboxylic acid 4-(4-amino-piperidine-1-sulfonyl)-benzylamide] | 0.3 | 
13 | COC1CCN(S(=O)(=O)c2ccc(CNC(=O)c3cncc4c3cnn4-c3ccc(F)cc3)cc2)CC1 [1-(4-Fluorophenyl)-1H-pyrazolo[3,4-c]pyridine-4-carboxylic acid 4-(4-methoxy-piperidine-1-sulfonyl)-benzylamide] | 0.7 | 
14 | O=C(NCc1ccc(S(=O)(=O)N2CCC(O)C2)cc1)c1cncc2c1cnn2-c1ccc(Cl)cc1 (centres unmarked) [1-(4-Chlorophenyl)-1H-pyrazolo[3,4-c]pyridine-4-carboxylic acid 4-(3-hydroxy-pyrrolidine-1-sulfonyl)-benzylamide] | 2 | 

The remaining lines, values ahead:

Row | IC50 (CCR1 [1]) [nM] | IC50 (CCR1 [2]) [nM] | Compound
15 | 0.5 | 0.2 | CC[C@H](NC(=O)c1cncc2c1cnn2-c1ccc(F)cc1)c1cncc(S(C)(=O)=O)c1 [1-(4-Fluorophenyl)-1H-pyrazolo[3,4-c]pyridine-4-carboxylic acid [(S)-1-(5-methanesulfonyl-pyridin-3-yl)-propyl]-amide]
16 | 15 | 8 | CC[C@H](NC(=O)c1cncc2c1cnn2-c1ccc(F)cc1)c1cccnc1 [1-(4-Fluorophenyl)-1H-pyrazolo[3,4-c]pyridine-4-carboxylic acid ((S)-1-pyridin-3-yl-propyl)-amide]
17 | 9 | 3 | C[C@H](NC(=O)c1cncc2c1cnn2-c1ccc(F)cc1)c1ccc(S(C)(=O)=O)nc1 [1-(4-Fluorophenyl)-1H-pyrazolo[3,4-c]pyridine-4-carboxylic acid [(S)-1-(6-methanesulfonyl-pyridin-3-yl)-ethyl]-amide]
18 | 35 | 14 | CC[C@H](NC(=O)c1cncc2c1cnn2-c1ccc(F)cc1)c1cncc(S(=O)(=O)CCC(=O)O)c1 [3-[5-((S)-1-{[1-(4-Fluorophenyl)-1H-pyrazolo[3,4-c]pyridine-4-carbonyl]-amino}-propyl)-pyridine-3-sulfonyl]-propionic acid]
19 | 0.4 | 0.3 | CC[C@H](NC(=O)c1cncc2c1cnn2-c1ccc(F)cc1)c1cncc(S(=O)(=O)CC)c1 [1-(4-Fluorophenyl)-1H-pyrazolo[3,4-c]pyridine-4-carboxylic acid [(S)-1-(5-ethanesulfonyl-pyridin-3-yl)-propyl]-amide]
20 | 3 |  | C[C@H](NC(=O)c1cncc2c1cnn2-c1ccc(F)cc1)c1cncc(S(C)(=O)=O)c1 [1-(4-Fluorophenyl)-1H-pyrazolo[3,4-c]pyridine-4-carboxylic acid [(S)-1-(5-methanesulfonyl-pyridin-3-yl)-ethyl]-amide]
21 | 0.8 |  | CCCC(NC(=O)c1cncc2c1cnn2-c1ccc(F)cc1)c1ccnc(S(=O)(=O)CC)c1 (centres unmarked) [1-(4-Fluorophenyl)-1H-pyrazolo[3,4-c]pyridine-4-carboxylic acid [1-(2-ethanesulfonyl-pyridin-4-yl)-butyl]-amide]
22 | 0.3 |  | C=CC[C@H](NC(=O)c1cncc2c1cnn2-c1ccc(F)cc1)c1ccnc(Br)c1 [1-(4-Fluorophenyl)-1H-pyrazolo[3,4-c]pyridine-4-carboxylic acid [(S)-1-(2-bromopyridin-4-yl)-but-3-enyl]-amide]
23 | 24 |  | CN(C)S(=O)(=O)Nc1ccc(CNC(=O)c2cncc3c2cnn3-c2ccc(F)cc2)cn1 [1-(4-Fluorophenyl)-1H-pyrazolo[3,4-c]pyridine-4-carboxylic acid [6-(dimethylamino-sulfonylamino)-pyridin-3-ylmethyl]-amide]
24 | 2 | 0.9 | C[C@H](NC(=O)c1cncc2c1cnn2-c1ccc(F)cc1)c1cncc(S(N)(=O)=O)c1 [1-(4-Fluorophenyl)-1H-pyrazolo[3,4-c]pyridine-4-carboxylic acid [(S)-1-(5-sulfamoyl-pyridin-3-yl)-ethyl]-amide]
25 | 9 |  | CC(NC(=O)c1cncc2c1cnn2-c1ccc(F)cc1)c1ccc(S(C)(=O)=O)nc1 (centres unmarked) [1-(4-Fluorophenyl)-1H-pyrazolo[3,4-c]pyridine-4-carboxylic acid [1-(6-methanesulfonyl-pyridin-3-yl)-ethyl]-amide]
26 | 12 |  | CNS(=O)(=O)c1cc(CNC(=O)c2cncc3c2cnn3-c2ccc(F)cc2)ccc1OC [1-(4-Fluorophenyl)-1H-pyrazolo[3,4-c]pyridine-4-carboxylic acid 4-methoxy-3-methylsulfamoyl-benzylamide]
27 | 2 |  | O=C(NCc1ccnc(Br)c1)c1cncc2c1cnn2-c1ccc(F)cc1 [1-(4-Fluorophenyl)-1H-pyrazolo[3,4-c]pyridine-4-carboxylic acid (2-bromopyridin-4-ylmethyl)-amide]
28 | 0.6 | 0.4 | C=CC[C@H](NC(=O)c1cncc2c1cnn2-c1ccc(F)cc1)c1ccnc(S(=O)(=O)CC)c1 [1-(4-Fluorophenyl)-1H-pyrazolo[3,4-c]pyridine-4-carboxylic acid [(S)-1-(2-ethanesulfonyl-pyridin-4-yl)-but-3-enyl]-amide]
29 | 1 |  | CC(NC(=O)c1cncc2c1cnn2-c1ccc(F)cc1)c1ccnc(Br)c1 (centres unmarked) [1-(4-Fluorophenyl)-1H-pyrazolo[3,4-c]pyridine-4-carboxylic acid [1-(2-bromopyridin-4-yl)-ethyl]-amide]
